Assay results published in patent publication US9896479B2, “Functionalized naphthalene fluorophores” (Kay M. Brummond, priority 2012, dated 2018).

Columns and labels:
Format in all cases: physicochemical
[1] = Fluorescence emission spectra (emission maxima, Stokes and bathochromic shifts)
Text: (§1) All commercially available compounds were purchased from Aldrich Chemical Co., GFS Chemicals, Strem Chemicals, Acros Organics, Alfa Aesar, and Advanced Chemtech and used as received, except for p-toluenesulfonyl hydrazide, which was recrystallized from methanol. Amines were purchased from Aldrich Chemical Co. as purified by redistillation and used as received. Tetrahydrofuran (THF), diethyl ether (Et2O), and dichloromethane (CH2Cl2) were purified by passing through alumina using the Sol-Tek ST-002 solvent purification system. Acetonitrile (MeCN) and toluene were freshly distilled from CaH2 prior to use. Benzene was freshly distilled from sodium/benzophenone prior to use Anhydrous N,N-dimethylformamide (DMF), 1,2-dichloroethane (DCE), and 1,4-dioxane were purchased and used as received from Aldrich Chemical Co. Purification of the compounds by flash column chromatography was performed using silica gel (32-63 μm particle size, 60 Å pore size) purchased from Silicycle, or by using a Biotage Horizon flash purification system with either Biotage SNAP KP-SIL silica cartridges, or Teledyne ISCO RediSep Rf normal phase disposable flash columns (40-60 micron). TLC analyses were performed on EMD Chemicals Silica Gel 60 F254 glass plates (250 μm thickness). ^1H NMR and ^13C NMR spectra were recorded on Bruker Avance 300 MHz, 500 MHz, or 600 MHz spectrometers. Spectra were referenced to residual chloroform (7.27 ppm, ^1H, 77.0 ppm, ^13C) or 1,2-dichlorobenzene (6.93 ppm, ^1H, 127.19 ppm, ^13C). Chemical shifts are reported in ppm, multiplicities are indicated by s (singlet), d (doublet), t (triplet), q (quartet), p (pentet), and m (multiplet). Coupling constants, J, are reported in hertz (Hz). All NMR spectra were obtained at room temperature unless otherwise specified. IR spectra were obtained using a Nicolet Avatar E.S.P. 360 FT-IR. EI mass spectroscopy was performed on a Waters Micromass GCT high resolution mass spectrometer. ES mass spectroscopy was performed on a Waters Q-TOF Ultima API, Micromass UK Limited high resolution mass spectrometer. GC mass spectrometry was performed on a Shimadzu GCMS-17A/QP5050A spectrometer. All microwave-mediated reactions were carried out using a Biotage Initiator™ Exp microwave synthesizer. The microwave parameters were set to variable power, constant temperature, with the fixed hold time set to on. The microwave reactions were carried out in 0.2-0.5 mL, 0.5-2 mL, 2-5 mL, or 10-20 mL Biotage microwave vials. […] Absorption and fluorescence spectra were recorded on Lambda 9 spectrophotometer (Perkin Elmer) and FluoroMax-3 spectrofluorometer (Jobin Yvon, Horiba), respectively. Fluorescence quantum yields were determined by taking Prodan in DMSO (quantum yield, QY=91%) as a reference. The quantum yield values were corrected for the solvent refractive index. For spectroscopic measurements, 10^−5 M solutions of dyes in 10 mm quartz-cuvettes were used (excitation wavelength was 334 nm; slits open to 2 nm).

[2] = Absorption spectra (absorption maxima) of dyes in organic solvents; conditions: for absorption maximum: in methylene chloride
Text: as §1

[3] = Fluorescence quantum yield vs Prodan in DMSO as reference; conditions: for QY (fluorescence quantum yield vs Prodan in DMSO (91%)): excitation 334 nm, 10^-5 M
Text: as §1

Structure (SMILES) | emission maximum ([1]; in dichloromethane (DCM)) [nm] | λabs (maximum absorption) ([2]; Acetonitrile) [nm] | λabs (maximum absorption) ([2]; CH2Cl2) [nm] | λabs (maximum absorption) ([2]; CHCl3) [nm] | λabs (maximum absorption) ([2]; Cyclohexane) [nm] | λabs (maximum absorption) ([2]; DMSO) [nm] | λabs (maximum absorption) ([2]; EtOH) [nm] | λabs (maximum absorption) ([2]; THF) [nm] | λabs (maximum absorption) ([2]; Toluene) [nm] | absorption maximum [2] [nm] | λem (maximum emission) ([1]; Acetonitrile) [nm] | λem (maximum emission) ([1]; CH2Cl2) [nm] | λem (maximum emission) ([1]; CHCl3) [nm] | λem (maximum emission) ([1]; Cyclohexane) [nm] | λem (maximum emission) ([1]; DMSO) [nm] | λem (maximum emission) ([1]; EtOH) [nm] | λem (maximum emission) ([1]; THF) [nm] | λem (maximum emission) ([1]; Toluene) [nm] | emission maximum ([1]; in methylene chloride) [nm] | QY (fluorescence quantum yield vs Prodan in DMSO (91%)) ([3]; Acetonitrile) [%] | also measured
CC(=O)c1c2c(cc3ccc(Cl)cc13)CCC2 [Compound 6b, 1-(6-Chloro-2,3-dihydro-1H-cyclopenta[b]naphthalen-4-yl)ethanone] | 527 | – | – | – | – | – | – | – | – | – | – | – | – | – | – | – | – | – | – | – | –
CC(=O)c1c2c(cc3c(Cl)cccc13)CCC2 [Compound 6c, 1-(8-Chloro-2,3-dihydro-1H-cyclopenta[b]naphthalen-4-yl)ethanone] | 564 | – | – | – | – | – | – | – | – | – | – | – | – | – | – | – | – | – | – | – | –
CC(=O)c1c2c(cc3cc(Cl)ccc13)CCC2 [Compound 6d, 1-(7-chloro-2,3-dihydro-1H-cyclopenta[b]naphthalen-4-yl)ethanone] | 581 | – | – | – | – | – | – | – | – | – | – | – | – | – | – | – | – | – | – | – | –
CC(=O)c1c2c(cc3ccc(N(C)C)cc13)CCC2 [Compound 10, 1-(6-(Dimethylamino)-2,3-dihydro-1H-cyclopenta[b]naphthalen-4-yl)ethanone] | – | 375 | 377 | 377 | 373 | 377 | 377 | 377 | 376 | ~375 | 529 | 510 | 516 | 466 | 536 | 578 | 497 | 490 | ~510 | 99 | λabs (maximum absorption) ([2]; 1,4-Dioxane): 376 nm; absorption maxima ([2]; dichloroethane): 377 nm; λem (maximum emission) ([1]; 1,4-Dioxane): 495 nm; QY (fluorescence quantum yield vs Prodan in DMSO (91%)) ([3]; 1,4-Dioxane): 46%; QY (fluorescence quantum yield vs Prodan in DMSO (91%)) ([3]; CH2Cl2): 99%; QY (fluorescence quantum yield vs Prodan in DMSO (91%)) ([3]; CHCl3): 77%; QY (fluorescence quantum yield vs Prodan in DMSO (91%)) ([3]; Cyclohexane): 45%; QY (fluorescence quantum yield vs Prodan in DMSO (91%)) ([3]; DMSO): 85%; QY (fluorescence quantum yield vs Prodan in DMSO (91%)) ([3]; EtOH): 5%; QY (fluorescence quantum yield vs Prodan in DMSO (91%)) ([3]; THF): 75%; QY (fluorescence quantum yield vs Prodan in DMSO (91%)) ([3]; Toluene): 62%; quantum yield ([3]; in dichloroethane): 99%
CC(=O)c1c2c(cc3cc(N(C)C)ccc13)CCC2 [Compound 11, 1-(7-(dimethylamino)-2,3-dihydro-1H-cyclopenta[b]naphthalen-4-yl)ethanone] | – | 370 | 372 | 373 | 363 | 374 | 374 | 370 | 368 | ~375 | 545 | 509 | 514 | 445 | 558 | 605 | 505 | 481 | ~510 | 18 | QY (fluorescence quantum yield vs Prodan in DMSO (91%)) ([3]; CH2Cl2): 82%; QY (fluorescence quantum yield vs Prodan in DMSO (91%)) ([3]; CHCl3): 41%; QY (fluorescence quantum yield vs Prodan in DMSO (91%)) ([3]; Cyclohexane): 8%; QY (fluorescence quantum yield vs Prodan in DMSO (91%)) ([3]; DMSO): 37%; QY (fluorescence quantum yield vs Prodan in DMSO (91%)) ([3]; EtOH): 3%; QY (fluorescence quantum yield vs Prodan in DMSO (91%)) ([3]; THF): 34%; QY (fluorescence quantum yield vs Prodan in DMSO (91%)) ([3]; Toluene): 25%
CC(=O)c1c2c(cc3c(N(C)C)cccc13)CCC2 [Compound 12, 1-(8-(dimethylamino)-2,3-dihydro-1H-cyclopenta[b]naphthalen-4-yl)ethanone] | – | 316 | 334 | 334 | 314 | 334 | 334 | 330 | 322 | 332 | 590 | 562 | 562 | 480 | 598 | 634 | 543 | 520 | 562 | 23 | λabs (maximum absorption) ([2]; 1,4-Dioxane): 319 nm; λem (maximum emission) ([1]; 1,4-Dioxane): 534 nm; QY (fluorescence quantum yield vs Prodan in DMSO (91%)) ([3]; 1,4-Dioxane): 44%; QY (fluorescence quantum yield vs Prodan in DMSO (91%)) ([3]; CH2Cl2): 60%; QY (fluorescence quantum yield vs Prodan in DMSO (91%)) ([3]; CHCl3): 40%; QY (fluorescence quantum yield vs Prodan in DMSO (91%)) ([3]; Cyclohexane): 28%; QY (fluorescence quantum yield vs Prodan in DMSO (91%)) ([3]; DMSO): 48%; QY (fluorescence quantum yield vs Prodan in DMSO (91%)) ([3]; THF): 39%; QY (fluorescence quantum yield vs Prodan in DMSO (91%)) ([3]; Toluene): 47%
CC(=O)c1c2c(cc3ccc(N4CCCC4)cc13)CCC2 [Compound 13, 1-(6-(pyrrolidin-1-yl)-2,3-dihydro-1H-cyclopenta[b]naphthalen-4-yl)ethanone] | – | – | – | – | – | – | – | – | – | – | – | – | – | – | – | – | – | – | – | – | λabs (absorption maxima) ([2]; CH2Cl2 (Table 3)): 325 nm; λabs (absorption maxima) ([2]; DMSO (Table 3)): 327 nm; λabs (absorption maxima) ([2]; Toluene (Table 3)): 320 nm; SS (Stokes shift) ([1]; CH2Cl2 (Table 3)): 243 nm; λem (emission maxima) ([1]; CH2Cl2 (Table 3)): 568 nm; SS (Stokes shift) ([1]; DMSO (Table 3)): 271 nm; λem (emission maxima) ([1]; DMSO (Table 3)): 598 nm; SS (Stokes shift) ([1]; Toluene (Table 3)): 206 nm; λem (emission maxima) ([1]; Toluene (Table 3)): 526 nm; Bathochromic shift ([1]; across Toluene, CH2Cl2, DMSO (Table 3)): 72 nm; absorption and emission maxima compared with fluorophore 102a ([1]; in DCM): comparable to those observed for fluorophore 102a
